# pKd: −log10 of the molar value. Read-outs that look alike come from different tables or passages of the source.
# Molecular target: T1, fascin-1 (Homo sapiens, UniProt Q16658)
# T1 construct: gene FSCN1; recombinant, E. coli BL21(DE3), pGEX-5X-2 GST fusion, GST cut off with thrombin; monomer
# Test: isothermal titration calorimetry
# Assay type: binding
pKd (read-out: Kd),SMILES,"Kd (50 mM Hepes pH 7.5, 150 mM NaCl, 25 °C, proposed site 2)"
~5.30,Cc1ccc2nc(-c3ccc(NCCOCCOCCOCCOCCOCCO)cc3)sc2c1 [BTA-EG6],
,O=C(Nc1nn(Cc2ccc(C(F)(F)F)cc2)c2ccccc12)c1ccco1 [G2],Kd values of G2 to WT fascin-1 and seven fascin-1 mutant proteins

# — publication PMC12926044, “Nootropic benzothiazoles promote dendritic spine formation by targeting fascin-1” (The Journal of Biological Chemistry, 2025)
